{"source": "patent US8461358B2", "about": "“Fluorescent probe for measuring protease” (The University of Tokyo, priority 2009, dated 2013)", "molecular_target": "T1, leucine aminopeptidase, LAP (Sus scrofa, UniProt P15145)", "T1 construct": "purchased SIGMA L5006-25UN; host or cells: porcine kidney (tissue-derived)", "T1 sequence (P15145 1-963)": "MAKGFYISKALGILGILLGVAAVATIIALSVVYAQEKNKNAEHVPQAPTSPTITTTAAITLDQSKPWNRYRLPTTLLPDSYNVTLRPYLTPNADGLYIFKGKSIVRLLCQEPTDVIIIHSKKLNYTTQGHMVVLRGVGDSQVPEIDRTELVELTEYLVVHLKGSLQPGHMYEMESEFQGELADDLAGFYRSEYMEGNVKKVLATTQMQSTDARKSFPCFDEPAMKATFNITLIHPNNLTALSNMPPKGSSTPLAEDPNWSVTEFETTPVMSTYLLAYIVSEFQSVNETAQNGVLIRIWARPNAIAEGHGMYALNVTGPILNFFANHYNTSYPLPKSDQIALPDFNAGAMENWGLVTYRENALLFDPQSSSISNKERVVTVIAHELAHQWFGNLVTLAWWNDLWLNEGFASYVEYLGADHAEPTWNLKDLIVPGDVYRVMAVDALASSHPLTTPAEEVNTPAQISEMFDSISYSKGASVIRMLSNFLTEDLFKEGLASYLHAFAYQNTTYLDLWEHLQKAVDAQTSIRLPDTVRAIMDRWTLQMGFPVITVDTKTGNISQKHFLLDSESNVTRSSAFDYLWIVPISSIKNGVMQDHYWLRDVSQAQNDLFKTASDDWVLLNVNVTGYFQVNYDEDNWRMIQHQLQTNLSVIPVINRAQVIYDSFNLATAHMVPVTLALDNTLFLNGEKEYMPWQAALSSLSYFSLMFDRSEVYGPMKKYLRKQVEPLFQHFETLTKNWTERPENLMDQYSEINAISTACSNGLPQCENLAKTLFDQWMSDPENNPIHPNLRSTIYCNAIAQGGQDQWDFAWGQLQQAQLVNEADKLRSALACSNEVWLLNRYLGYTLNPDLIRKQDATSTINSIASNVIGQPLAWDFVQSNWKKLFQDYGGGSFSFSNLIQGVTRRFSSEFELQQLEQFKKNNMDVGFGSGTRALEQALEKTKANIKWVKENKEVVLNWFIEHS", "assay": "Enzymatic reaction of probe with leucine aminopeptidase, fluorescence/absorption readout", "type": "biochemical, porcine", "settings": "5 μM compound", "procedure": "Compound (2) (Leu-RhoHM) and Compound (3) (γGlu-RhoHM) formed by bonding acyl residues derived from leucine and glutamic acid to one amino group of Compound (1) (RhoHM), respectively, were each dissolved in a neutral phosphate buffer, and reacted with a protease (leucine aminopeptidase, LAP, porcine kidney, SIGMA L5006-25UN) and γ-glutamyl transpeptidase (GGT, equine kidney, SIGMA G9270-100UN). Specifically, 3 μL of a […] solution of each compound in dimethyl sulfoxide (DMSO) was dissolved in 3 mL of a 0.1 M sodium phosphate buffer (pH 7.4) at a final concentration of 5 μM, and each of LAP (0.15 U) and GGT (1.1 U) was added to the solution to allow an enzymatic reaction at 37° C. The excitation wavelength was 501 nm.\nFurther, each of the DMSO solutions of both compounds (5 mM) in a volume of 3 μL was dissolved in 3 mL of a 0.1 M sodium phosphate buffer (pH 7.4) at a final concentration of 5 μM, and the enzymatic reaction was performed at 37° C. The values of fluorescence intensity observed with each amount of the enzymes 1 minute (Leu-RhoHM) or 9 minutes (γGlu-RhoHM) after the addition of the enzyme were plotted. The excitation wavelength was 501 nm, and the fluorescence emission wavelength was 524 nm.\nEnzyme specificity of Compounds (2) and (3) was examined. Each of the DMSO solutions (3 μL) was dissolved in 3 mL of a 0.1 M sodium phosphate buffer (pH 7.4) at a final concentration of 5 μM, and LAP (0.4 U) was added to the solution to perform the enzymatic reaction at 37° C.", "data": [{"smiles": "CC(C)C[C@H](N)C(=O)Nc1ccc2c(c1)Oc1cc(N)ccc1C21OCc2ccccc21", "note": "(stereo partly drawn) [Compound (2)]", "values": [{"measurement": "change of absorption and fluorescence intensity on reaction with LAP", "setting": "0.1 M sodium phosphate buffer pH 7.4, LAP 0.15 U, 37° C., excitation 501 nm", "value": "prompt marked increase of absorption and fluorescence intensity"}, {"measurement": "change of fluorescence intensity after reaction with LAP (enzyme specificity)", "setting": "0.1 M sodium phosphate buffer pH 7.4, LAP 0.4 U, 37° C.", "value": "marked increase of fluorescence intensity"}, {"measurement": "fluorescence intensity versus added LAP amount", "setting": "pH 7.4, 37° C., 1 minute after addition of the enzyme, excitation 501 nm, emission 524 nm", "value": "linear increase of fluorescence intensity"}]}]}
